Source: PMC9133015 (Nature Communications, 2022)
“And” between values parts separate entries of the source, which are not always exact repeats. Equal values may be shown once. “Also recorded” adds a separate entry of the source.

Legend:
[1] = tested on: 22Rv1 cells; assay: Real-time quantitative PCR (RRS1, GRWD1, CCNG2, YPEL3 mRNA); type: cell-based, human; conditions: replicates
[2] = tested on: DU145 cells; assay: as above; type: cell-based, human
[3] = tested on: ICR mice; assay: Acute toxicity study; type: in vivo
[4] = ICR mice, single oral dose 2500, 5000, 10,000 mg/kg, 14 days

CCN1CCN(C(=O)c2ccc(Nc3ncc(F)c(-c4ccc5nc(N(C)C)sc5c4)n3)nc2)CC1 [YK-2-69]
Relative mRNA levels YPEL3 ([1]; 22Rv1, 1 μM): 1.18 and 1.26 and 1.19 | Relative mRNA levels CCNG2 ([1]; 22Rv1, 2 μM): 4.36 and 5.2 and 4.62 | Relative mRNA levels GRWD1 ([1]; 22Rv1, 2 μM): 0.79 and 0.78 and 0.7 | Relative mRNA levels RRS1 ([1]; 22Rv1, 2 μM): 0.73 and 0.77 and 0.71 | Relative mRNA levels YPEL3 ([1]; 22Rv1, 2 μM): 1.68 and 1.63 and 1.74 | Relative mRNA levels CCNG2 ([1]; 22Rv1, 4 μM): 8.94 and 9.9 and 8.92 | Relative mRNA levels GRWD1 ([1]; 22Rv1, 4 μM): 0.69 and 0.68 and 0.62 | Relative mRNA levels RRS1 ([1]; 22Rv1, 4 μM): 0.63 and 0.68 | Relative mRNA levels YPEL3 ([1]; 22Rv1, 4 μM): 2.48 and 2.53 and 2.64 | Relative mRNA levels CCNG2 ([2]; DU145, 2 μM): 1.61 and 1.59 and 1.77 | Relative mRNA levels GRWD1 ([2]; DU145, 2 μM): 0.86 and 0.88 and 0.9 | Relative mRNA levels RRS1 ([2]; DU145, 2 μM): 0.88 and 0.78 and 0.86 | Relative mRNA levels YPEL3 ([2]; DU145, 2 μM): 1.25 and 1.23 and 1.29 | Relative mRNA levels CCNG2 ([2]; DU145, 4 μM): 1.7 and 1.66 and 1.89 | Relative mRNA levels GRWD1 ([2]; DU145, 4 μM): 0.79 and 0.71 | Relative mRNA levels RRS1 ([2]; DU145, 4 μM): 0.68 and 0.7 and 0.71 | Relative mRNA levels YPEL3 ([2]; DU145, 4 μM): 2.68 and 2.63 and 2.74 | Relative mRNA levels CCNG2 ([2]; DU145, 8 μM): 1.91 and 1.83 and 2.04 | Relative mRNA levels GRWD1 ([2]; DU145, 8 μM): 0.58 and 0.63 and 0.67 | Relative mRNA levels RRS1 ([2]; DU145, 8 μM): 0.58 and 0.65 | Relative mRNA levels YPEL3 ([2]; DU145, 8 μM): 3.48 and 3.53 and 3.64 | Figure S9b Heart (organ weight, individual mice) ([3]; 2500 mg/kg): 0.094 and 0.137 and 0.125 and 0.146 and 0.118 and 0.152 and 0.105 and 0.097 and 0.092 and 0.115 | Figure S9b Kidney (organ weight, individual mice) ([3]; 2500 mg/kg): 0.384 and 0.403 and 0.421 and 0.413 and 0.636 and 0.576 and 0.731 and 0.682 and 0.613 | Figure S9b Liver (organ weight, individual mice) ([3]; 2500 mg/kg): 1.351 and 1.216 and 1.284 and 1.094 and 1.159 and 1.384 and 1.751 and 1.369 and 1.52 and 1.491 | Figure S9b Lung (organ weight, individual mice) ([3]; 2500 mg/kg): 0.316 and 0.435 and 0.421 and 0.358 and 0.299 and 0.367 and 0.294 and 0.341 and 0.276 and 0.336 | Figure S9b Spleen (organ weight, individual mice) ([3]; 2500 mg/kg): 0.176 and 0.186 and 0.205 and 0.201 and 0.214 and 0.253 and 0.196 and 0.221 and 0.206 and 0.257 | Figure S9a body weight of individual mice ([3]; 2500 mg/kg, Day 0): 19.9 and 20.5 and 20.1 (2×) and 20 and 19.6 and 19.8 and 20.3 and 20.6 and 21.1 | Figure S9a body weight of individual mice ([3]; 2500 mg/kg, Day 2): 20.2 (2×) and 20.8 and 20.3 (2×) and 20.4 and 19.8 and 20.6 and 20.9 and 21.5 | Figure S9a body weight of individual mice ([3]; 2500 mg/kg, Day 4): 20.8 and 21.3 (2×) and 20.5 and 20.6 (2×) and 20.1 and 20.4 and 21.1 and 21.8 | Figure S9a body weight of individual mice ([3]; 2500 mg/kg, Day 6): 21.3 and 21.7 and 20.6 and 20.8 and 20.2 and 20.7 and 21.5 and 21.9 and 22.2 and 20.9 | Figure S9a body weight of individual mice ([3]; 2500 mg/kg, Day 8): 22.3 and 22.5 and 20.7 and 21.1 and 20.3 and 21 and 21.8 and 22.2 and 22.6 and 21.5 | Figure S9a body weight of individual mice ([3]; 2500 mg/kg, Day 10): 22.9 and 23.2 and 20.9 and 21.4 and 20.5 and 21.3 and 22.2 and 22.5 and 23.4 and 21.9 | Figure S9a body weight of individual mice ([3]; 2500 mg/kg, Day 12): 23.5 and 23.9 and 21.2 and 21.7 and 20.6 and 21.6 and 22.4 (2×) and 22.9 and 23.8 | Figure S9a body weight of individual mice ([3]; 2500 mg/kg, Day 14): 24.2 and 24.5 and 21.4 and 22 and 20.9 and 21.8 and 22.9 (2×) and 23.4 and 24.3 | Figure S9b Heart (organ weight, individual mice) ([3]; 5000 mg/kg): 0.126 and 0.135 and 0.116 and 0.143 and 0.138 and 0.106 and 0.112 and 0.096 and 0.094 | Figure S9b Kidney (organ weight, individual mice) ([3]; 5000 mg/kg): 0.369 and 0.416 and 0.389 and 0.444 and 0.502 and 0.384 and 0.569 and 0.612 and 0.656 and 0.715 | Figure S9b Liver (organ weight, individual mice) ([3]; 5000 mg/kg): 1.316 and 1.128 and 1.421 and 1.266 and 1.156 and 1.841 and 1.669 and 1.581 and 1.384 and 1.492 | Figure S9b Lung (organ weight, individual mice) ([3]; 5000 mg/kg): 0.401 and 0.386 and 0.456 and 0.512 and 0.379 and 0.452 and 0.253 and 0.302 and 0.281 and 0.317 | Figure S9b Spleen (organ weight, individual mice) ([3]; 5000 mg/kg): 0.2 and 0.186 and 0.199 and 0.214 and 0.231 and 0.25 and 0.241 and 0.267 | Figure S9a body weight of individual mice ([3]; 5000 mg/kg, Day 0): 21.4 and 20.5 (3×) and 19.7 and 20.2 and 19.6 and 19.9 and 20.3 and 21.1 | Figure S9a body weight of individual mice ([3]; 5000 mg/kg, Day 2): 21.7 and 20.9 and 19.9 and 20.4 and 19.6 and 20.3 and 20.7 and 20.6 and 21.5 and 20.8 | Figure S9b Heart (organ weight, individual mice) ([3]; 10000 mg/kg): 0.115 and 0.099 and 0.142 and 0.128 and 0.122 and 0.129 and 0.089 and 0.096 and 0.124 and 0.106 | Figure S9b Kidney (organ weight, individual mice) ([3]; 10000 mg/kg): 0.412 and 0.389 and 0.476 and 0.423 and 0.403 and 0.621 and 0.586 and 0.639 and 0.7 and 0.641 | Figure S9b Liver (organ weight, individual mice) ([3]; 10000 mg/kg): 1.352 and 1.294 and 1.186 and 1.416 and 1.222 and 1.613 and 1.358 and 1.429 and 1.61 and 1.389 | Figure S9b Lung (organ weight, individual mice) ([3]; 10000 mg/kg): 0.418 and 0.361 and 0.395 and 0.475 and 0.486 and 0.369 and 0.384 and 0.416 and 0.336 and 0.333 | Figure S9b Spleen (organ weight, individual mice) ([3]; 10000 mg/kg): 0.181 and 0.194 and 0.176 and 0.189 and 0.201 and 0.235 and 0.214 and 0.226 and 0.257 | maximal tolerable dose ([3]; ICR mice, single oral dose): more than 10,000 mg/kg | abnormality and death [3, 4]: no mice died; also recorded: No abnormality and death were observed | body weight and main organs vs control (in words) [3, 4]: no difference was detected
